Laboratory results as given in patent US10266497B2 (ABIDE THERAPEUTICS, INC., priority 2017, dated 2019).

Columns and labels:
MAGL [1] = target: T1, MAGL (Homo sapiens, UniProt Q99685); test: In vitro competitive activity-based protein profiling, MAGL, human; conditions: for inhibition at 1 µM: read-out: MAGL % inh. 1 μM (human)
T1 sequence (Q99685 1-303): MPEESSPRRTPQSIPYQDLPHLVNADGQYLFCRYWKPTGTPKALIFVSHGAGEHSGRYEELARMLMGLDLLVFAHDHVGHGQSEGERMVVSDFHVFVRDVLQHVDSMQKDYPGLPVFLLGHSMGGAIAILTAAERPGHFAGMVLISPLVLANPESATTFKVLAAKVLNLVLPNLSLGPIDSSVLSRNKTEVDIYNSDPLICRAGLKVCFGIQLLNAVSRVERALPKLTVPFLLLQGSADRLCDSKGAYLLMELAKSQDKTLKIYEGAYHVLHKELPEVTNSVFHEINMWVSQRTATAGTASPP

FAAH [2] = target: T2, FAAH (Mus musculus, UniProt O08914); test: In vitro competitive activity-based protein profiling, FAAH, mouse; conditions: read-out: FAAH % inh. 1 μM (mouse)
T2 sequence (O08914 1-579): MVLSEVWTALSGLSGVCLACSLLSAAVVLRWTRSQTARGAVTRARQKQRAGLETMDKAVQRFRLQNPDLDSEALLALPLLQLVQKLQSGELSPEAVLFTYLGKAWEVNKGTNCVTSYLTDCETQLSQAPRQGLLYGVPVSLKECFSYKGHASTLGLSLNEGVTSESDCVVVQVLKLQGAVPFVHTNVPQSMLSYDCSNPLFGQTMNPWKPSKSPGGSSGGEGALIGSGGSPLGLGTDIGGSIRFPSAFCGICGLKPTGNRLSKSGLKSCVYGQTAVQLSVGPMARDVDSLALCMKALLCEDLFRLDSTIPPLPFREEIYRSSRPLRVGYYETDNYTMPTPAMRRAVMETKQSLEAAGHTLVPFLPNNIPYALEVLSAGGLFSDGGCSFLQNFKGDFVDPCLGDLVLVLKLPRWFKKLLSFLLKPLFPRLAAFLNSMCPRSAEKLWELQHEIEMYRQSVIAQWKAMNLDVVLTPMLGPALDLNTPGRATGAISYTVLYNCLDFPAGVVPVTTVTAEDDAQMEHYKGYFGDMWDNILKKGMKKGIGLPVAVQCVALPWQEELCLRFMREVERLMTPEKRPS

FAAH [3] = target: T3, FAAH (Homo sapiens, UniProt O00519); test: In vitro competitive activity-based protein profiling, FAAH, human; conditions: for inhibition at 1 µM: read-out: FAAH % inh. 1 μM (human)
T3 sequence (O00519 1-579): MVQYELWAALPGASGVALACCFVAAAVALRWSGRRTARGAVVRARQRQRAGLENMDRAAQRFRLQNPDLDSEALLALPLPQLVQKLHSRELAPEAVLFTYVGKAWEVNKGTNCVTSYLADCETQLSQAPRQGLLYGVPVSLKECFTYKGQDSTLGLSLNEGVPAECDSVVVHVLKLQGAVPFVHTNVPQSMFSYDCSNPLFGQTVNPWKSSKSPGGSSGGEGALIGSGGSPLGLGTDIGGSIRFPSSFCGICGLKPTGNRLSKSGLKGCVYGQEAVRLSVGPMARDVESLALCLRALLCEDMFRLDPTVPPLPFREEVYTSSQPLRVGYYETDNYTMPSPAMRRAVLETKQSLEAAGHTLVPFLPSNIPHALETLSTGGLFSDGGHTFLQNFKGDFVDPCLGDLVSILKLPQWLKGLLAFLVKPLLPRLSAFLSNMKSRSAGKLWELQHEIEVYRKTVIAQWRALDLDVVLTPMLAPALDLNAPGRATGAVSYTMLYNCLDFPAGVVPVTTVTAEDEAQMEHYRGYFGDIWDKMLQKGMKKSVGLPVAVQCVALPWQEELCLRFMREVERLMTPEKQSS

MAGL [4] = target: T4, MAGL (Mus musculus, UniProt O35678); test: In vitro competitive activity-based protein profiling, MAGL, mouse; conditions: read-out: MAGL % inh. 1 μM (mouse)
T4 sequence (O35678 1-303): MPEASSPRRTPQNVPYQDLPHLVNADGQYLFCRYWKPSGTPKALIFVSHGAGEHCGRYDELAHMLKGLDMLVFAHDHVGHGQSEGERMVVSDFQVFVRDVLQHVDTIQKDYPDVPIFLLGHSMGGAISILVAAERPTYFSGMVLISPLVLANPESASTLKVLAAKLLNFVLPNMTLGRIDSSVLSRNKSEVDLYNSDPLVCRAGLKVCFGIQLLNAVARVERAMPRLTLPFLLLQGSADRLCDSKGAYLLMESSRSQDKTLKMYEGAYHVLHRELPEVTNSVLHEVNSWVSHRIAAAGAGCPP
Experimental: Biological Evaluation In Vitro Competitive Activity-Based Protein Profiling.
Proteomes (mouse brain membrane fraction for mouse assays; human prefrontal cortex membrane fractions for human assays) (50 mL, 1.0 mg/mL total protein concentration) were preincubated with varying concentrations of inhibitors at 37° C. After 30 min, FP-Rh (1.0 mL, 50 mM in DMSO) was added and the mixture was incubated for another 30 min at 37° C. Reactions were quenched with SDS loading buffer (15 μL—4λ) and run on SDS-PAGE.

| Compound | inhibition at 1 µM (MAGL [1]) [%] | inhibition at 1 µM (FAAH [2]) [%] | inhibition at 1 µM (FAAH [3]) [%] | inhibition at 1 µM (MAGL [4]) [%] | IC50 (FAAH [3]) [nM] | inhibition at 10 µM (MAGL [1]; read-out: MAGL % inh. (human) at 10 uM) [%] | inhibition at 10 µM (FAAH [3]; read-out: FAAH % inh. (human) at 10 uM) [%] |
| --- | --- | --- | --- | --- | --- | --- | --- |
| O=C(O)c1ccn(C(=O)N2CCN(Cc3cccc(Oc4ccncc4)c3)CC2)n1 [Example 59, 1-(4-(3-(pyridin-4-yloxy)benzyl)piper-azine-1-carbonyl)-1H-pyrazole-3-carboxylic acid] | > 75 | 0 to 25 | 0 to 25 | > 75 | – | – | – |
| C#Cc1ccc(CN2CCN(C(=O)n3ccc(C(N)=O)n3)CC2)cc1 [Example 144, 1-(4-(4-ethynylbenzyl)piper-azine-1-carbonyl)-1H-pyrazole-3-carboxamide] | > 75 | > 75 | > 75 | > 75 | – | – | – |
| O=C(O)c1ccn(C(=O)N2CCC3(CCN(Cc4cc(Cl)cc(C(F)(F)F)c4)C3)CC2)n1 [Example 72, 1-(2-(3-chloro-5-(trifluoromethyl)benzyl)-2,8-diazaspiro[4.5]decane-8-carbonyl)-1H-pyrazole-3-carboxylic acid] | > 75 | 0 to 25 | 0 to 25 | > 75 | 1000 to 10000 | – | – |
| CN(Cc1ccc(Cl)c(N2CCCC2)c1)C1(C)CCN(C(=O)n2ccc(C(=O)O)n2)CC1 [Example 39, 1-(4-((4-chloro-3-(pyrrolidin-1-yl)benzyl)(methyl)amino)-4-methylpiperidine-1-carbonyl)-1H-pyrazole-3-carboxylic acid] | > 75 | 0 to 25 | 0 to 25 | > 75 | – | – | – |
| CN(Cc1ccc(Cl)cc1N1CCCC1)C1(C)CCN(C(=O)n2ccc(C(=O)O)n2)CC1 [Example 46, 1-(4-((4-chloro-2-(pyrrolidin-1-yl)benzyl)(methyl)amino)-4-methylpiperidine-1-carbonyl)-1H-pyrazole-3-carboxylic acid] | > 75 | 0 to 25 | 0 to 25 | > 75 | – | – | – |
| O=C(O)c1ccn(C(=O)N2CC3CN(Cc4ccc(Cl)c(N5CC6COCC6C5)c4)CC3C2)n1 (stereo not shown) [Example 166, 1-(5-(4-chloro-3-(tetrahydro-1H-furo[3,4-c]pyrrol-5(3H)-yl)benzyl)octahydropyrrolo[3,4-c]pyrrole-2-carbonyl)-1H-pyrazole-3-carboxylic acid] | 50 to 75 | 0 to 25 | 0 to 25 | > 75 | – | – | – |
| NC(=O)c1ccn(C(=O)N2CCN(Cc3cnccc3C(F)(F)F)CC2)n1 [Example 175, 1-(4-((4-(trifluoromethyl)pyridin-3-yl)methyl)piperazine-1-carbonyl)-1H-pyrazole-3-carboxamide] | > 75 | > 75 | > 75 | > 75 | 100 to 1000 | – | – |
| O=C(O)c1ccn(C(=O)N2C[C@H]3C[C@@H](OCc4ccccc4Cl)C[C@H]3C2)n1 [Example 41, 1-(cis-5-((2-chlorobenzyl)oxy)octahydrocyclo-penta[c]pyrrole-2-carbonyl)-1H-pyrazole-3-carboxylic acid] | > 75 | 0 to 25 | > 75 | 0 to 25 | – | – | – |
| O=C(O)c1nn(C(=O)N2CC3CN(Cc4cccc(Oc5ccc(Cl)cc5)c4)CC3C2)cc1C(F)(F)F (stereo not shown) [Example 147, 1-(5-(3-(4-chlorophenoxy)benzyl)octahydro-pyrrolo[3,4-c]pyrrole-2-carbonyl)-4-(trifluoromethyl)-1H-pyrazole-3-carboxylic acid] | > 75 | > 75 | > 75 | 0 to 25 | – | – | – |
| O=C(O)c1ccn(C(=O)N2CCN(Cc3cccc(Oc4ccccc4Cl)c3)CC2)n1 [Example 85, 1-(4-(3-(2-chlorophenoxy)benzyl)piperazine-1-carbonyl)-1H-pyrazole-3-carboxylic acid] | > 75 | 50 to 75 | 0 to 25 | > 75 | 1000 to 10000 | – | – |
| CN(Cc1cc(Cl)ccc1C(F)(F)F)CC1CCN(C(=O)n2cc(Cl)c(C(=O)O)n2)CC1 [Example 54, 4-chloro-1-(4-(((5-chloro-2-(trifluoromethyl)benzyl)(methyl)amino)methyl)piper-idine-1-carbonyl)-1H-pyrazole-3-carboxylic acid] | > 75 | > 75 | > 75 | > 75 | 100 to 1000 | – | – |
| O=C(O)c1ccn(C(=O)N2CCC3(CCN(C(=O)c4cc5ccc(C(F)(F)F)cc5s4)C3)CC2)n1 [Example 58, 1-(2-(6-(trifluoromethyl)benzo[b]thiophene-2-carbonyl)-2,8-diazaspiro[4.5]decane-8-carbonyl)-1H-pyrazole-3-carboxylic acid] | > 75 | 50 to 75 | 0 to 25 | > 75 | – | – | – |
| O=C(O)c1ccn(C(=O)N2CCN(Cc3cc(Cl)cc(Oc4ccc(Cl)cc4)c3)CC2)n1 [Example 19, 1-(4-(3-Chloro-5-(4-chlorophenoxy)benzyl)piperazine-1-carbonyl)-1H-pyrazole-3-carboxylic Acid] | > 75 | > 75 | > 75 | > 75 | 100 to 1000 | – | – |
| C#Cc1ccc(CN2CCN(C(=O)n3ccc(C(=O)O)n3)CC2)cc1 [Example 50, 1-(4-(4-ethynylbenzyl)piper-azine-1-carbonyl)-1H-pyrazole-3-carboxylic acid] | – | 0 to 25 | – | 0 to 25 | – | > 75 | > 75 |
| O=C(O)c1ccn(C(=O)N2CCN(Cc3ccc(C(F)(F)F)cc3N3CCN4CCC[C@H]4C3)CC2)n1 [Example 49, (S)-1-(4-(2-(hexahydropyrrolo [1,2-a]pyrazin-2(1H)-yl)-4-(trifluoromethyl)benzyl)piperazine-1-carbonyl)-1H-pyrazole-3-carboxylic acid] | > 75 | 0 to 25 | 0 to 25 | > 75 | – | – | – |
| O=C(O)c1ccn(C(=O)N2CCC3(CCN(Cc4cccc(-c5ccccc5)c4)C3)CC2)n1 [Example 73, 1-(2-([1,1′-biphenyl]-3-ylmethyl)-2,8-diazaspiro[4.5]decane-8-carbonyl)-1H-pyrazole-3-carboxylic acid] | > 75 | 50 to 75 | 0 to 25 | > 75 | – | – | – |
| Cc1c(CN2CCC3(CCN(C(=O)n4ccc(C(=O)O)n4)CC3)C2)cccc1C(F)(F)F [Example 71, 1-(2-(2-methyl-3-(trifluoromethyl)benzyl)-2,8-diazaspiro[4.5]decane-8-carbonyl)-1H-pyrazole-3-carboxylic acid] | > 75 | 0 to 25 | 0 to 25 | > 75 | – | – | – |
